In patent US20250073210A1, “Use of Ergothioneine for Enhancing Glutathione Level” (priority 2022, published 2025):

Columns and labels:
[1] = tested on: total GSH; assay: Example 3: oral L-ergothioneine 5, 15, 30 mg/day on plasma glutathione in healthy humans; type: in vivo, human
Text: A Baseline will be established looking at Total and Percent Reduced Glutathione. These same values will be measured at the end of the four weeks. Subjects will be contacted once a week while in the study for an assessment of compliance with intervention.
Study Population: Male and female subjects 25-75 years of age Number of Subjects: 5, assigned as follows: 1 subject will receive the GSH administered orally once weekly for 4 weeks; 1 subject will receive S-acetyl-glutathione supplemented orally once daily for 4 weeks; 3 subjects will receive 5, 15, 30 mg L-ergothioneine supplemented orally once daily for 4 weeks, respectively.
• 1. Individuals must be between 25-70 years of age with no known medical conditions that, in the investigator's opinion, may interfere with study participation. • 2. Subjects must present with mild to moderate signs oxidative stress or inflammation. • 3. Willingness to cooperate and participate by following Study requirements. • 4. Individuals must sign informed consent, photo release consent and confidentiality agreement.
• 1. […] Individuals currently taking certain medications or any dietary supplements, which in the opinion of the investigator might interfere with the study. This would include but not be limited to routine high dosage use of anti-inflammatory drugs (aspirin, ibuprofen, corticosteroids) immunosuppressive drugs or antihistamine medications), and insulin, anti-hypertensive drugs, and especially antioxidants. • 3. Individuals with uncontrolled metabolic diseases such as diabetes (Type I and II), hypertension, hyperthyroidism or hypothyroidism, severe chronic asthma, immunological disorders such as HIV positive, AIDS and systemic lupus erythematosus or mastectomy for cancer involving removal of lymph nodes. • 4. Women known to be pregnant, nursing or planning to become pregnant. • 5. Individuals participating in other clinical studies evaluating antioxidants or anti-inflammatory interventions.

[2] = tested on: total GSH; assay: Example 2: oral L-ergothioneine on plasma glutathione in healthy humans; type: in vivo, human; conditions: Example 2, 200 mg orally once daily, single subject

CC(=O)SC[C@H](NC(=O)CC[C@H](N)C(=O)O)C(=O)NCC(=O)O [SAG, S-acetyl-glutathione]
Total GSH at Day 30 ([1]; Example 3, 200 mg orally once daily, single subject, baseline 733 μM): 461 µM
Total GSH at Day 30 ([1]; Example 3, second sentence on a single subject with comparator intervention (see doubts)): 503 µM
% change from baseline in total GSH ([1]; Example 3, single subject): −37%
% change from baseline in total GSH [2]: −25%
Total GSH at Day 30 ([2]; baseline 727 μM): 547 µM
